{
  "source": "patent US5877165A",
  "about": "“Boronated porhyrins and methods for their use” (priority 1997, dated 1999)",
  "key": {"[1]": {"system": "KHJJ mammary carcinomas", "assay": "Boron biodistribution, mice with KHJJ mammary carcinomas (Examples 8-12, Table 2)", "parameters": "species or system BALB/c mice", "conditions": "mouse, in vivo", "description": "(§1) Female BALB/c mice (Taconic Farms, Germantown, N.Y.) (20-25 g) were implanted with either KHJJ or EMT-6 tumors. For KHJJ tumors, 1-3 mm^3 tumor fragments were implanted subcutaneously (s.c.) in the dorsal thorax of each mouse using an 18-gauge trocar. For EMT-6 tumors, 2.5×10^5 cells were implanted similarly using a 27-gauge needle. EMT-6 tumor cells were grown alternately in vivo and in vitro. Single-cell suspensions were prepared from mouse-grown tumors by trypsinization. These were grown in cell culture for several passages and then were frozen in 10% DMSO and stored in liquid nitrogen. Prior to implantation in mice, the cells were thawed and grown in tissue culture in Alpha-MEM with 10% FBS for several passages.\n(§2) Under deep halothane anesthesia leading to euthanasia, right ventricular blood was collected in Microtainer (Becton-Dickinson, Rutherford, N.J.) tubes containing EDTA for hematological analyses and boron assays of whole blood and in Microtainer™ tubes containing lithium heparin for chemical analyses and enzyme assays of blood plasma. Tumor, brain, fat, muscle, and liver tissues were sampled at necropsy for boron analyses.\nDirect current plasma-atomic emission spectroscopy [DCP-AES] (ARL/Fisons Model SS-7) was used (detection limit: 0.1 μg/ml). Samples (50-130 mg) were digested at 60° C. with sulfuric acid:nitric acid (1:1). […]"}, "[2]": {"assay": "Hematological, enzymatic and chemical blood analyses and weight change, mice with KHJJ mammary carcinomas (Examples 8-12, Table 2)", "format": "in vivo, BALB/c mice", "conditions": "244 μg/gbw; 17 hr to 4 d", "description": "as §1, with “passages. […]” for “passages.”\nLevels of glucose [GLU], blood urea nitrogen [BUN], blood creatinine [BCR], alanine transaminase [ALT], aspartate transaminase [AST], alkaline phosphatase [ALP], total protein [TPR], albumin [ALB], and creatine phosphokinase [CPK] were determined in blood plasma using a Cobas Fara II microanalysis system. Blood platelets [PLT] and white blood cells [WBC] were counted using a Serono-Baker System 9000 automated hematology microanalyzer. […]"}, "[3]": {"assay": "Experiment I: hematological, chemical and enzymatic tests, mice bearing KHJJ tumors (Table 7)", "format": "in vivo, BALB/c mice", "conditions": "3 ip over 8 hr, ZnDPE 118, NiTCP 183 μg/gbw, median (range)", "description": "Lipophilic porphyrins 1, 2, 4, 5, and 6 were injected as emulsions in either 3% or 9% CRM and either 6% or 18% PRG with saline as previously described in Example 2 above. Water soluble porphyrins 3 and 7 were dissolved in saline. BPA was solubilized as a fructose complex.\nFemale BALB/c mice (from Taconic Farms, Germantown, N.Y.) (20-25 g) were implanted with either KHJJ or EMT-6 tumors according to the procedure described in Example 3A above.\nas §2\nIn Experiment I, NiTCP (183 μg/gbw) and lipophilic, heme derivative ZnDPE (118 μg/gbw) were compared in mice bearing KHJJ mammary tumors. The porphyrins were given as 3% CRM and 6% PrG emulsions in 3 ip injections given over 8 hrs. Animals were euthanized 15 hr, 39 hr, and 90 hr after the last injection.\nHematological, chemical and enzymatic tests were carried out as described in Example 3 above. Nonparametric statistical analyses were carried out using the Wilcoxon Two-Sample Test in accordance with procedures described in Slatkin, D.N., 1995. Boron analyses were conducted in accordance with the procedure described in Example 3 above. Fat and liver tissues were assayed for ^10 B by prompt-gamma spectroscopy as described in Fairchild, et al., 1986. These measurements were multiplied by 5.0 to give total boron concentrations due to the use of boron of natural isotope abundance in the syntheses of all boronated porphyrins reported."}},
  "note": "“Also recorded” adds a separate entry of the source.",
  "data": [
    {"substance": "Nickel Tetracarboranylphenylporphyrin [NiTCP]", "values": [
      {"measurement": "retention of boron in tumor, in words", "setting": "[1]", "result": "the ability to retain the therapeutic amounts of boron in the tumor for several days"},
      {"measurement": "time before average blood boron concentration falls below 1 ppm", "setting": "[1]", "result": 4, "unit": "days"},
      {"measurement": "toxicity, in words", "setting": "[2]", "result": "non-toxic; also recorded: only slight differences in the results of blood chemical analyses between the NiTCP groups and the solvent-only control groups; also recorded: Weight loss was only observed 17 hours after the last injection of NiTCP"},
      {"measurement": "% Δw", "setting": "[3]; 15 hr", "result": "0.5 (^- 3.2-4.1) %"},
      {"measurement": "ALP", "setting": "[3]; 15 hr", "result": "80 (56-86)"},
      {"measurement": "ALT", "setting": "[3]; 15 hr", "result": "28 (21-32)"},
      {"measurement": "AST", "setting": "[3]; 15 hr", "result": "81 (60-146)"},
      {"measurement": "BCR", "setting": "[3]; 15 hr", "result": "0.5 (0.4-0.5)"},
      {"measurement": "BUN", "setting": "[3]; 15 hr", "result": "32 (27-41)"},
      {"measurement": "CPK", "setting": "[3]; 15 hr", "result": "66 (41-289)"},
      {"measurement": "GLU", "setting": "[3]; 15 hr", "result": "199 (183-262)"},
      {"measurement": "PLT", "setting": "[3]; 15 hr", "result": "733 (579-956)"},
      {"measurement": "% Δw", "setting": "[3]; 39 hr", "result": "3.9 (3.0-9.2) %"},
      {"measurement": "ALP", "setting": "[3]; 39 hr", "result": "71 (57-88)"},
      {"measurement": "ALT", "setting": "[3]; 39 hr", "result": "32 (27-153)"},
      {"measurement": "AST", "setting": "[3]; 39 hr", "result": "108 (76-442)"},
      {"measurement": "BCR", "setting": "[3]; 39 hr", "result": "0.4 (0.3-0.4)"},
      {"measurement": "BUN", "setting": "[3]; 39 hr", "result": "35 (32-43)"},
      {"measurement": "CPK", "setting": "[3]; 39 hr", "result": "167 (91-227)"},
      {"measurement": "GLU", "setting": "[3]; 39 hr", "result": "210 (183-260)"},
      {"measurement": "PLT", "setting": "[3]; 39 hr", "result": "826 (790-927)"},
      {"measurement": "% Δw", "setting": "[3]; 90 hr", "result": "7.8 (5.9-12.1) %"},
      {"measurement": "ALP", "setting": "[3]; 90 hr", "result": "40 (37-80)"},
      {"measurement": "ALT", "setting": "[3]; 90 hr", "result": "27 (26-33)"},
      {"measurement": "AST", "setting": "[3]; 90 hr", "result": "138 (46-285)"},
      {"measurement": "BCR", "setting": "[3]; 90 hr", "result": "0.4 (0.4-0.4)"},
      {"measurement": "BUN", "setting": "[3]; 90 hr", "result": "24 (14-34)"},
      {"measurement": "CPK", "setting": "[3]; 90 hr", "result": "69 (52-94)"},
      {"measurement": "GLU", "setting": "[3]; 90 hr", "result": "218 (172-242)"},
      {"measurement": "PLT", "setting": "[3]; 90 hr", "result": "790 (553-839)"}
    ]}
  ]
}
